# In PubChem BioAssay AID226 (DTP/NCI, 2004):
# Where “and” joins values, the source holds several entries; their conditions need not be identical. Equal values may be shown once. Toxic doses and inconclusive results are not listed.
# System: B6C3F1 mice, intracerebral ependymoblastoma, median survival T/C
# Assay: NCI In Vivo Anticancer Drug Screen. Data for tumor model Ependymoblastoma (intracerebral) in B6C3F1 mice
# Conditions: endpoint: median survival time, higher = longer survival
# Method: The antitumor activity of compounds was measured in mice bearing transplantable tumors. Survival or tumor size were measured and the results are expressed as the measurement made in the treated group (T) divided by the measurement made in the vehicle treated control group (C). The tumor model used in this assay is Ependymoblastoma (intracerebral) in B6C3F1 mice
# [1] = dose: 1.0 mg/kg/injection, schedule: Q01DX005 (ip), vehicle: Klucel (hydroxypropylcellulose) (HPC)
# [2] = dose: 2.0 mg/kg/injection, schedule: Q01DX005 (ip), vehicle: Klucel (hydroxypropylcellulose) (HPC)
# [3] = dose: 4.0 mg/kg/injection, schedule: Q01DX005 (ip), vehicle: saline with Tween-80
# [4] = dose: 4.0 mg/kg/injection, schedule: Q01DX005 (ip), vehicle: Klucel (hydroxypropylcellulose) (HPC)
# [5] = dose: 8.0 mg/kg/injection, schedule: Q01DX005 (ip), vehicle: Klucel (hydroxypropylcellulose) (HPC)
# [6] = dose: 32.0 mg/kg/injection, schedule: Q01DX005 (ip), vehicle: Klucel (hydroxypropylcellulose) (HPC)
# [7] = dose: 64.0 mg/kg/injection, schedule: Q01DX005 (ip), vehicle: Klucel (hydroxypropylcellulose) (HPC)
# [8] = dose: 128.0 mg/kg/injection, schedule: Q01DX005 (ip), vehicle: Klucel (hydroxypropylcellulose) (HPC)
# [9] = dose: 8.0 mg/kg/injection, schedule: Q01DX005 (ip), vehicle: saline with Tween-80
# [10] = dose: 16.0 mg/kg/injection, schedule: Q01DX005 (ip), vehicle: saline with Tween-80
# [11] = dose: 32.0 mg/kg/injection, schedule: Q01DX005 (ip), vehicle: saline with Tween-80
# [12] = dose: 64.0 mg/kg/injection, schedule: Q01DX005 (ip), vehicle: saline with Tween-80
smiles,measurement,setting,value
CN1CC[C@]23c4c5ccc(O)c4O[C@H]2C(=O)CC[C@H]3[C@H]1C5,T/C,"dose: 6.25 mg/kg/injection, schedule: Q01DX005 (iv), vehicle: saline",113 % of control
same,T/C,"dose: 12.5 mg/kg/injection, schedule: Q01DX005 (iv), vehicle: saline",114 % of control
same,T/C,"dose: 25.0 mg/kg/injection, schedule: Q01DX005 (iv), vehicle: saline",122 % of control
COc1ccc(CC2C(=O)NC(C)C(=O)N(C)C3C(=O)N(C)C(Cc4ccc(O)c(c4)Oc4ccc(cc4)C3O)C(=O)NC(C)C(=O)NC(C)C(=O)N2C)cc1 (configuration not stated),T/C,"dose: 0.25 mg/kg/injection, schedule: Q01DX005 (ip), vehicle: Klucel (hydroxypropylcellulose) (HPC)",103 % of control
same,T/C,"dose: 0.25 mg/kg/injection, schedule: Q01DX005 (ip), vehicle: saline with Tween-80",105 % of control
same,T/C,"dose: 0.5 mg/kg/injection, schedule: Q01DX005 (ip), vehicle: Klucel (hydroxypropylcellulose) (HPC)",107 % of control
same,T/C,"dose: 0.5 mg/kg/injection, schedule: Q01DX005 (ip), vehicle: saline with Tween-80",114 % of control
same,T/C,[1],106 % of control
same,T/C,"dose: 1.0 mg/kg/injection, schedule: Q01DX005 (ip), vehicle: saline with Tween-80",113 % of control
same,T/C,[2],96 % of control
same,T/C,"dose: 2.0 mg/kg/injection, schedule: Q01DX005 (ip), vehicle: saline with Tween-80",114 % of control
same,T/C,[3],97 % of control
Nc1ccc(S(N)(=O)=O)cc1,T/C,"dose: 25.0 mg/kg/injection, schedule: Q01DX005 (ip), vehicle: saline with Tween-80",98 % of control
same,T/C,"dose: 50.0 mg/kg/injection, schedule: Q01DX005 (ip), vehicle: saline with Tween-80",96 % of control and 103 % of control
same,T/C,"dose: 100.0 mg/kg/injection, schedule: Q01DX005 (ip), vehicle: saline with Tween-80",101 % of control and 103 % of control
same,T/C,"dose: 200.0 mg/kg/injection, schedule: Q01DX005 (ip), vehicle: saline with Tween-80",92 % of control and 102 % of control
same,T/C,"dose: 400.0 mg/kg/injection, schedule: Q01DX005 (ip), vehicle: saline with Tween-80",101 % of control and 107 % of control
same,T/C,"dose: 800.0 mg/kg/injection, schedule: Q01DX005 (ip), vehicle: saline with Tween-80",95 % of control
O=C1NC2(CCCCC2)C(=O)N1CCN(CCCl)CCCl,T/C,[1],116 % of control
same,T/C,"dose: 1.0 mg/kg/injection, schedule: Q01DX005 (ip), vehicle: saline",99 % of control and 103 % of control and 107 % of control
same,T/C,"dose: 1.5 mg/kg/injection, schedule: Q01DX005 (ip), vehicle: Klucel (hydroxypropylcellulose) (HPC)",101 % of control
same,T/C,"dose: 1.56 mg/kg/injection, schedule: Q01DX005 (ip), vehicle: Klucel (hydroxypropylcellulose) (HPC)",100 % of control
same,T/C,[2],99 % of control
same,T/C,"dose: 2.5 mg/kg/injection, schedule: Q01DX005 (ip), vehicle: other",97 % of control
same,T/C,"dose: 2.5 mg/kg/injection, schedule: Q01DX005 (ip), vehicle: saline",100 % of control
same,T/C,"dose: 3.0 mg/kg/injection, schedule: Q01DX005 (ip), vehicle: Klucel (hydroxypropylcellulose) (HPC)",110 % of control
same,T/C,"dose: 3.12 mg/kg/injection, schedule: Q01DX005 (ip), vehicle: Klucel (hydroxypropylcellulose) (HPC)",101 % of control
same,T/C,[4],117 % of control
same,T/C,"dose: 5.0 mg/kg/injection, schedule: Q01DX005 (ip), vehicle: other",112 % of control
same,T/C,"dose: 5.0 mg/kg/injection, schedule: Q01DX005 (ip), vehicle: saline",98 % of control
same,T/C,"dose: 6.0 mg/kg/injection, schedule: Q01DX005 (ip), vehicle: Klucel (hydroxypropylcellulose) (HPC)",111 % of control
same,T/C,"dose: 6.0 mg/kg/injection, schedule: Q01DX005 (oral), vehicle: Klucel (hydroxypropylcellulose) (HPC)",105 % of control and 88 % of control
same,T/C,"dose: 6.25 mg/kg/injection, schedule: Q01DX005 (ip), vehicle: Klucel (hydroxypropylcellulose) (HPC)",105 % of control
same,T/C,[5],112 % of control
same,T/C,"dose: 10.0 mg/kg/injection, schedule: Q01DX005 (ip), vehicle: saline",98 % of control
same,T/C,"dose: 12.0 mg/kg/injection, schedule: Q01DX005 (oral), vehicle: Klucel (hydroxypropylcellulose) (HPC)",87 % of control
same,T/C,"dose: 24.0 mg/kg/injection, schedule: Q01DX005 (oral), vehicle: Klucel (hydroxypropylcellulose) (HPC)",92 % of control and 100 % of control
same,T/C,"dose: 48.0 mg/kg/injection, schedule: Q01DX005 (oral), vehicle: Klucel (hydroxypropylcellulose) (HPC)",101 % of control
same,T/C,"dose: 96.0 mg/kg/injection, schedule: Q01DX005 (oral), vehicle: Klucel (hydroxypropylcellulose) (HPC)",97 % of control
CC(C)=CCC1=C(O)c2ccccc2C(=O)C1=O,T/C,[6],91 % of control
same,T/C,[7],100 % of control
same,T/C,[8],96 % of control
CN=NNc1nc[nH]c1C(N)=O,T/C,"dose: 8.0 mg/kg/injection, schedule: Q01DX005 (ip), vehicle: saline",99 % of control
same,T/C,"dose: 16.0 mg/kg/injection, schedule: Q01DX005 (ip), vehicle: saline",106 % of control
same,T/C,"dose: 32.0 mg/kg/injection, schedule: Q01DX005 (ip), vehicle: saline",110 % of control
same,T/C,"dose: 64.0 mg/kg/injection, schedule: Q01DX005 (ip), vehicle: saline",123 % of control
Cc1c[nH]c(=O)[nH]c1=O,T/C,[7],104 % of control
same,T/C,[8],92 % of control
same,T/C,"dose: 256.0 mg/kg/injection, schedule: Q01DX005 (ip), vehicle: Klucel (hydroxypropylcellulose) (HPC)",99 % of control
same,T/C,"dose: 512.0 mg/kg/injection, schedule: Q01DX005 (ip), vehicle: Klucel (hydroxypropylcellulose) (HPC)",95 % of control
same,T/C,"dose: 1024.0 mg/kg/injection, schedule: Q01DX005 (ip), vehicle: Klucel (hydroxypropylcellulose) (HPC)",95 % of control
CN(C)C(=O)N(CCCl)N=O,T/C,"dose: 5.0 mg/kg/injection, schedule: Q01DX001 (ip), vehicle: DMSO",106 % of control
same,T/C,"dose: 8.3 mg/kg/injection, schedule: Q01DX001 (ip), vehicle: DMSO",112 % of control
same,T/C,"dose: 12.5 mg/kg/injection, schedule: Q01DX001 (ip), vehicle: water",188 % of control
same,T/C,"dose: 23.0 mg/kg/injection, schedule: Q01DX001 (ip), vehicle: DMSO",366 % of control
same,T/C,"dose: 25.0 mg/kg/injection, schedule: Q01DX001 (ip), vehicle: water",332 % of control
same,T/C,"dose: 38.4 mg/kg/injection, schedule: Q01DX001 (ip), vehicle: DMSO",365 % of control
NC(=O)c1ncn(C2OC(CO)C(O)C2O)c1O (configuration not stated),T/C,"dose: 25.0 mg/kg/injection, schedule: Q01DX005 (ip), vehicle: Klucel (hydroxypropylcellulose) (HPC)",92 % of control
same,T/C,"dose: 50.0 mg/kg/injection, schedule: Q01DX005 (ip), vehicle: Klucel (hydroxypropylcellulose) (HPC)",101 % of control and 115 % of control
same,T/C,"dose: 100.0 mg/kg/injection, schedule: Q01DX005 (ip), vehicle: Klucel (hydroxypropylcellulose) (HPC)",96 % of control and 101 % of control
same,T/C,"dose: 200.0 mg/kg/injection, schedule: Q01DX005 (ip), vehicle: Klucel (hydroxypropylcellulose) (HPC)",105 % of control and 115 % of control
same,T/C,"dose: 400.0 mg/kg/injection, schedule: Q01DX005 (ip), vehicle: Klucel (hydroxypropylcellulose) (HPC)",111 % of control
CC(=O)Nc1ccn(C2OC(COC(C)=O)C(OC(C)=O)C2OC(C)=O)c(=O)n1 (configuration not stated),T/C,"dose: 150.0 mg/kg/injection, schedule: Q01DX005 (ip), vehicle: saline with Tween-80",105 % of control
same,T/C,"dose: 300.0 mg/kg/injection, schedule: Q01DX005 (ip), vehicle: saline with Tween-80",112 % of control
same,T/C,"dose: 600.0 mg/kg/injection, schedule: Q01DX005 (ip), vehicle: saline with Tween-80",107 % of control
same,T/C,"dose: 1200.0 mg/kg/injection, schedule: Q01DX005 (ip), vehicle: saline with Tween-80",120 % of control
CCOC(=O)C(CC(C)C)NC(=O)C(Cc1ccc(N(CCCl)CCCl)cc1)NC(C)=O (configuration not stated),T/C,[1],87 % of control
same,T/C,[2],95 % of control
same,T/C,[4],97 % of control and 106 % of control and 113 % of control
same,T/C,[3],104 % of control and 108 % of control
same,T/C,[5],97 % of control and 102 % of control and 107 % of control
same,T/C,[9],101 % of control and 104 % of control
same,T/C,"dose: 16.0 mg/kg/injection, schedule: Q01DX005 (ip), vehicle: Klucel (hydroxypropylcellulose) (HPC)",100 % of control and 102 % of control and 105 % of control
same,T/C,[10],98 % of control and 105 % of control
same,T/C,[6],105 % of control and 109 % of control and 110 % of control
same,T/C,[11],106 % of control
same,T/C,[7],115 % of control
same,T/C,[12],163 % of control
CCCCCCCCN(C)/N=N/c1nc[nH]c1C(N)=O,T/C,[9],119 % of control
same,T/C,[10],122 % of control and 123 % of control
same,T/C,[11],113 % of control
same,T/C,[12],111 % of control
